This is an account of results in article PMC7732128, “Regulation of gene transcription by thyroid hormone receptor β agonists in clinical development for the treatment of non-alcoholic steatohepatitis (NASH)” (PLoS ONE, 2020).

One series relates to THRβ over THRα. The note with it: from ligand-binding affinities (Kd or Ki); cited from earlier work.
The next series has as its target T1, GST-tagged THRα LBD (Homo sapiens, UniProt P10827).
T1 construct: purchased Invitrogen
Nature of the series: TR-FRET thyroid hormone receptor coactivator assay, THRα. The format is biochemical. The note with it: read-out: THRα EC50 Mean ± SEM. From the text: A time-resolved FRET (TR-FRET)-based, biochemical assay was used as an initial screen to assess the ability of compounds to bind either THRα or β in vitro. […] Upon excitation of the terbium-labeled anti-GST antibody, energy is transferred to the fluorescein-labeled coactivator peptide and is detected as emission at 520 nm.
The assay procedure is based on the manufacturer’s protocol for LanthaScreen™ TR-FRET Thyroid Receptor beta Coactivator Assay (Invitrogen, PV4686) with slight, optimized modifications. Briefly, the assay was performed in 384-well, black microplate plates, protected from light. Test compounds were serially diluted in DMSO (1.0% final DMSO concentration) and added to the test plate. […]
In the TR-FRET thyroid hormone receptor coactivator assay, increasing concentrations of each compound was combined with the GST-tagged LBD of THRα or β, a coactivator peptide, and terbium-labeled anti-GST antibody. TR-FRET was then measured and dose-response curves were generated. […] Luminescence was measured and dose-response curves were generated. For both assays, calculated EC50 means ± SEM, n, and THRα EC50-to-THRβ EC50 ratios (α:β) are reported for each compound-THR subtype combination.
In general terms: In TR-FRET formats the signal depends on donor and acceptor labels being close together.

The subject of another series is THRβ (α:β). On the set-up: method as in PMID 32768645. The note with it: coactivator recruitment assay; cited from earlier work.
For another series, the system named is cholesterol-fed rat. Details: method as in PMID 18975928. The note with it: cited from earlier work.
Details of series [1]: method as in doi:10.1016/s0735-1097(16)31933-7. The note with it: 14-day treatment, ≥ 5 mg; cited from earlier work.
In series [2] the test system is hepatic OATP1B1/B3 transporters. On the set-up: method as in PMID 19785645. The note with it: cited from earlier work.
For a further series, the system named is healthy volunteers. The note with it: two weeks, ≥ 80 mg; cited from earlier work.
Series [3] has as its system THR (liver Cpt1a, Dio1, Me1, Thrsp RNA). Nature of the series: High-fat diet fed rat study: liver gene expression. The format is in vivo. The note with it: HFD rats. How it is done:
Eighty-four male Sprague Dawley rats, approximately 8 to 11 weeks of age, were fed with either a normal diet, ND (D12450K: 10 kcal% fat, no sucrose), or high-fat diet, HFD (D12109C: 40 kcal% fat, 1.25 gm% cholesterol, 0.5 gm% sodium cholate, 12.5 gm% sucrose). After 12 days of diet consumption, baseline serum total cholesterol and low-density lipoprotein cholesterol (LDL-C) levels were measured with the cobas 6000 c501 Chemistry Analyzer (Roche) to confirm hypercholesterolemia in the HFD fed rats. Animals were then randomized into treatment groups.
Serum total cholesterol and LDL-C levels were determined as described above. […] Caudate lobes of the liver were used for analysis of hepatic total cholesterol (Abcam, ab65390) and triglyceride levels (Abcam, ab65336) via enzyme-linked immunosorbent assay. Right lateral lobes were stored in RNAlater (Invitrogen, AM7020) at -70°C until homogenization with the Scientz-48 TissueLyser LT for downstream gene expression analysis. RNA extraction was performed at WuXi AppTec (Hong Kong) Limited (China) with the RNeasy Mini Kit (Qiagen, 74106) and RNA concentration and quality was determined using the Nanodrop 2000 (Thermo Scientific); additional quality control was assessed with agarose gel electrophoresis. One μg total RNA from each sample was then reverse-transcribed using the High Capacity cDNA Reverse Transcription kit (Applied Biosystems, 4368814) and the resulting cDNA was diluted 1:5 with nuclease-free, distilled water. Gene expression was measured using TaqMan Fast Advanced Master Mix and the following TaqMan Gene Expression assays: Actb (Rn00667869_m1), Cpt1a (Rn00580702_m1), Dio1 (Rn00572183_m1), Me1 (Rn00561502_m1), Rplp1 (Rn03467157_gH), and Thrsp (Rn01511034_m1). Actb and Rplp1 served as control housekeeping genes. Ten μL reactions were run on the qTOWER³ 84. Relative quantification (RQ) of gene expression was calculated via the 2^−ΔΔCt method and statistical analysis was performed in GraphPad Prism 8.0 and Microsoft Excel.

Setting [4] is: 4 hrs after 5.0 or 1.5 mg/kg, vs vehicle.

Bounds are passed on as bounds.

T1 sequence (P10827 163-410 isoform P10827-2 limits assumed, other chains not shown): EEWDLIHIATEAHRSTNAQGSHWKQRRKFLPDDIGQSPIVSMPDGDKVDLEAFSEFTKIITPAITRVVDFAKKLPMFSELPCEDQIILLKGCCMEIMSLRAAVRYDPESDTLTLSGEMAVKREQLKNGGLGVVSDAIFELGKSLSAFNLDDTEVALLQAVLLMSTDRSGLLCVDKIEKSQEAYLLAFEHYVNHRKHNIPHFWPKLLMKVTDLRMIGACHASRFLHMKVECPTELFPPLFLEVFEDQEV

One may read the EC50 as the concentration at which the effect is half-maximal. In the case of `Cc1cc(OCP(=O)(O)O)cc(C)c1Cc1ccc(O)c(C(C)C)c1` [VK2809A], the “selectivity for THRβ over THRα” value in the series on THRβ over THRα is 15.8 fold. The EC50 on GST-tagged THRα LBD worked out at 25.5 ± 7 nM. Further, the “selectivity for THRβ (α:β)” value with THRβ (α:β) is reported as 2.1.
Take `Cc1cc(OCP2(=O)OCC[C@@H](c3cccc(Cl)c3)O2)cc(C)c1Cc1ccc(O)c(C(C)C)c1` (stereo partly drawn) [VK2809]: the “reduction in total cholesterol” value in the series with cholesterol-fed rat (single dose 0.5 mg/kg) is listed as 36%. Further, in the series on cholesterol-fed rat (single dose 3.0 mg/kg), the “decrease in total cholesterol” value is reported as at most 55%. The “reduction in LDL-C” value in series [1] is on record as “up to 41.2%”. Also, the EC50 at GST-tagged THRα LBD came to 253 ± 40.7 nM.
Consider `CC(C)c1cc(Oc2c(Cl)cc(-n3nc(C#N)c(=O)[nH]c3=O)cc2Cl)n[nH]c1=O` [MGL-3196, 2-[3,5-dichloro-4-(5-isopropyl-6-oxo-1,6-dihydropyridazin-3-yloxy)phenyl]-3,5-dioxo-2,3,4,5-tetrahydro[1,2,4]triazine-6-carbonitrile], for which, in series [2], the transporter substrate entry is given as “substrate”. Moreover, in the series on healthy volunteers, the “reduction in LDL-C” value is reported as 21.8–30.3% and the “reduction in total cholesterol” value is given as 16.0–22.8%. In series [3] (setting [4]), the “liver Cpt1a, Dio1 and Thrsp RNA levels” value was “activated the transcription of Cpt1a, Dio1, and Thrsp in a dose-dependent manner”; the “liver Me1 RNA level” value was “no significant increase”. In addition, the “increases in liver Cpt1a and Thrsp RNA levels” value in series [3] (24 hrs after 5.0 or 1.5 mg/kg) is “dampened”. Further, the “liver Dio1 and Me1 transcription” value in series [3] (24 hrs after 5.0 or 1.5 mg/kg, vs vehicle) is “significantly increased”. The “increase in liver Dio1 expression between doses” value in series [3] (between 1.5 and 5 mg/kg) is reported as 1.3 fold.
